Measurements reported in ChEMBL document CHEMBL3091293, “The synthesis and biodistribution of [(11)C]metformin as a PET probe to study hepatobiliary transport mediated by the multi-drug and toxin extrusion transporter 1 (MATE1) in vivo” (Bioorg Med Chem, 2013).

Legend:
Format in all cases: ADME, organism-based
[1] = system: Thyroid gland; assay: Biodistribution in thyroid of ddY mouse at 5.6 +/- 2.1 MBq, iv measured per gram of tissue at 90 mins by gamma-ray counting analysis; conditions: in vivo, 1.5 h
[2] = system: Kidney; assay: Biodistribution in kidney of ddY mouse at 5.6 +/- 2.1 MBq, iv measured per gram of tissue at 15 mins by gamma-ray counting analysis; conditions: in vivo, 0.25 h
[3] = system: Mus musculus; assay: Biodistribution in heart wall of ddY mouse at 5.6 +/- 2.1 MBq, iv measured per gram of tissue at 30 mins by gamma-ray counting analysis; conditions: in vivo, 0.5 h
[4] = system: Mus musculus; assay: Biodistribution in large intestine wall of ddY mouse at 5.6 +/- 2.1 MBq, iv measured per gram of tissue at 15 mins by gamma-ray counting analysis; conditions: in vivo, 0.25 h
[5] = system: Thyroid gland; assay: Biodistribution in thyroid of ddY mouse at 5.6 +/- 2.1 MBq, iv measured per gram of tissue at 45 mins by gamma-ray counting analysis; conditions: in vivo, 0.75 h
[6] = system: Mus musculus; assay: Biodistribution in urinary bladder/urine of ddY mouse at 5.6 +/- 2.1 MBq, iv measured per gram of tissue at 30 mins by gamma-ray counting analysis; conditions: in vivo, 0.5 h
[7] = system: Pancreas; assay: Biodistribution in pancreas of ddY mouse at 5.6 +/- 2.1 MBq, iv measured per gram of tissue at 30 mins by gamma-ray counting analysis; conditions: in vivo, 0.5 h
[8] = system: Liver; assay: Biodistribution in liver of ddY mouse at 5.6 +/- 2.1 MBq, iv measured per gram of tissue at 35 mins by gamma-ray counting analysis; conditions: in vivo
[9] = system: Mus musculus; assay: Biodistribution in remaining body parts of ddY mouse at 5.6 +/- 2.1 MBq, iv measured per gram of tissue at 30 mins by gamma-ray counting analysis; conditions: in vivo, 0.5 h
[10] = system: Mus musculus; assay: Biodistribution in stomach wall of ddY mouse at 5.6 +/- 2.1 MBq, iv measured per gram of tissue at 35 mins by gamma-ray counting analysis; conditions: in vivo
[11] = system: Kidney; assay: Drug uptake in kidney of ddY mouse at 127 +/- 35 MBq/kg, iv measured up to 4.5 mins by microPET image analysis in presence of MATE1 inhibitor pyrimethamine; conditions: in vivo, 0.075 h
[12] = system: Mus musculus; assay: Biodistribution in remaining body parts of ddY mouse at 5.6 +/- 2.1 MBq, iv measured per gram of tissue at 35 mins by gamma-ray counting analysis; conditions: in vivo
[13] = system: Mus musculus; assay: Biodistribution in stomach wall of ddY mouse at 5.6 +/- 2.1 MBq, iv measured per gram of tissue at 15 mins by gamma-ray counting analysis; conditions: in vivo, 0.25 h
[14] = system: Lung; assay: Biodistribution in lung of ddY mouse at 5.6 +/- 2.1 MBq, iv measured per gram of tissue at 90 mins by gamma-ray counting analysis; conditions: in vivo, 1.5 h
[15] = system: Spleen; assay: Biodistribution in spleen of ddY mouse at 5.6 +/- 2.1 MBq, iv measured per gram of tissue at 90 mins by gamma-ray counting analysis; conditions: in vivo, 1.5 h
[16] = system: Mus musculus; assay: Biodistribution in stomach wall of ddY mouse at 5.6 +/- 2.1 MBq, iv measured per gram of tissue at 60 mins by gamma-ray counting analysis; conditions: in vivo, 1 h
[17] = system: Liver; assay: Biodistribution in liver of ddY mouse at 5.6 +/- 2.1 MBq, iv measured per gram of tissue at 90 mins by gamma-ray counting analysis; conditions: in vivo, 1.5 h
[18] = system: Liver; assay: Biodistribution in liver of ddY mouse at 5.6 +/- 2.1 MBq, iv measured per gram of tissue at 30 mins by gamma-ray counting analysis; conditions: in vivo, 0.5 h
[19] = system: Kidney; assay: Biodistribution in kidney of ddY mouse at 5.6 +/- 2.1 MBq, iv measured per gram of tissue at 90 mins by gamma-ray counting analysis; conditions: in vivo, 1.5 h
[20] = system: Mus musculus; assay: Biodistribution in heart wall of ddY mouse at 5.6 +/- 2.1 MBq, iv measured per gram of tissue at 35 mins by gamma-ray counting analysis; conditions: in vivo
[21] = system: Mus musculus; assay: Biodistribution in heart wall of ddY mouse at 5.6 +/- 2.1 MBq, iv measured per gram of tissue at 60 mins by gamma-ray counting analysis; conditions: in vivo, 1 h
[22] = system: Spleen; assay: Biodistribution in spleen of ddY mouse at 5.6 +/- 2.1 MBq, iv measured per gram of tissue at 30 mins by gamma-ray counting analysis; conditions: in vivo, 0.5 h
[23] = system: Mus musculus; assay: Biodistribution in small intestine wall of ddY mouse at 5.6 +/- 2.1 MBq, iv measured per gram of tissue at 60 mins by gamma-ray counting analysis; conditions: in vivo, 1 h
[24] = system: Pancreas; assay: Biodistribution in pancreas of ddY mouse at 5.6 +/- 2.1 MBq, iv measured per gram of tissue at 35 mins by gamma-ray counting analysis; conditions: in vivo
[25] = system: Mus musculus; assay: Biodistribution in small intestine wall of ddY mouse at 5.6 +/- 2.1 MBq, iv measured per gram of tissue at 35 mins by gamma-ray counting analysis; conditions: in vivo
[26] = system: Mus musculus; assay: Biodistribution in small intestine wall of ddY mouse at 5.6 +/- 2.1 MBq, iv measured per gram of tissue at 45 mins by gamma-ray counting analysis; conditions: in vivo, 0.75 h
[27] = system: Lung; assay: Biodistribution in lung of ddY mouse at 5.6 +/- 2.1 MBq, iv measured per gram of tissue at 60 mins by gamma-ray counting analysis; conditions: in vivo, 1 h
[28] = Metabolic stability in urine of mouse at 5 +/- 2.3 MBq/kg, iv measured until 30 to 60 mins by HPLC analysis in presence of MATE1 inhibitor pyrimethamine; conditions: in vivo
[29] = system: Pancreas; assay: Biodistribution in pancreas of ddY mouse at 5.6 +/- 2.1 MBq, iv measured per gram of tissue at 60 mins by gamma-ray counting analysis; conditions: in vivo, 1 h
[30] = system: Thyroid gland; assay: Biodistribution in thyroid of ddY mouse at 5.6 +/- 2.1 MBq, iv measured per gram of tissue at 60 mins by gamma-ray counting analysis; conditions: in vivo, 1 h
[31] = system: Mus musculus; assay: Biodistribution in large intestine wall of ddY mouse at 5.6 +/- 2.1 MBq, iv measured per gram of tissue at 60 mins by gamma-ray counting analysis; conditions: in vivo, 1 h
[32] = system: Mus musculus; assay: Biodistribution in urinary bladder of ddY mouse at 14.6 +/- 2.1 MBq, iv measured per gram of tissue at 5 mins by PET image analysis; conditions: in vivo
[33] = system: Mus musculus; assay: Biodistribution in large intestine wall of ddY mouse at 5.6 +/- 2.1 MBq, iv measured per gram of tissue at 30 mins by gamma-ray counting analysis; conditions: in vivo, 0.5 h
[34] = system: Pancreas; assay: Biodistribution in pancreas of ddY mouse at 5.6 +/- 2.1 MBq, iv measured per gram of tissue at 15 mins by gamma-ray counting analysis; conditions: in vivo, 0.25 h
[35] = system: Mus musculus; assay: Biodistribution in heart wall of ddY mouse at 5.6 +/- 2.1 MBq, iv measured per gram of tissue at 45 mins by gamma-ray counting analysis; conditions: in vivo, 0.75 h
[36] = system: Mus musculus; assay: Biodistribution in stomach wall of ddY mouse at 5.6 +/- 2.1 MBq, iv measured per gram of tissue at 30 mins by gamma-ray counting analysis; conditions: in vivo, 0.5 h
[37] = system: Pancreas; assay: Biodistribution in pancreas of ddY mouse at 5.6 +/- 2.1 MBq, iv measured per gram of tissue at 90 mins by gamma-ray counting analysis; conditions: in vivo, 1.5 h

For `CN([11CH3])C(=N)NC(=N)N`, the Drug uptake [1] was 0.013 %ID, the Drug uptake [2] was 1.181 %ID and the Drug uptake [3] was 0.044 %ID. The Drug uptake [4] was 0.659 %ID, the Drug uptake [5] was 0.002 %ID and the Drug uptake [6] was 73.314 %ID. For the same compound, the Drug uptake [7] was 0.405 %ID, the Drug uptake [8] was 1.478 %ID and the Drug uptake [9] was 18.728 %ID. For the same compound, the Drug uptake [10] was 0.091 %ID, the Drug uptake [11] was “Active” and the Drug uptake [12] was 20.55 %ID. For the same compound, the Drug uptake [13] was 0.347 %ID, the Drug uptake [14] was 0.128 %ID and the Drug uptake [15] was 0.087 %ID. It also gave a Drug uptake [16] of 0.169 %ID, a Drug uptake [17] of 1.288 %ID and a Drug uptake [18] of 2.319 %ID. For the same compound, the Drug uptake [19] was 0.236 %ID, the Drug uptake [20] was 0.049 %ID and the Drug uptake [21] was 0.038 %ID. The Drug uptake [22] was 0.162 %ID, the Drug uptake [23] was 2.543 %ID and the Drug uptake [24] was 0.196 %ID. The Drug uptake [25] was 2.06 %ID, the Drug uptake [26] was 2.128 %ID and the Drug uptake [27] was 0.136 %ID. For the same compound, the Stability [28] was “Stable”, the Drug uptake [29] was 0.281 %ID and the Drug uptake [30] was 0.005 %ID. For the same compound, the Drug uptake [31] was 0.395 %ID, the Drug uptake [32] was 37.19 %ID and the Drug uptake [33] was 0.352 %ID. The Drug uptake [34] was 0.295 %ID, the Drug uptake [35] was 0.029 %ID and the Drug uptake [36] was 0.173 %ID. The Drug uptake [37] was 0.339 %ID.
